Assay results as given in US8580787B2, “Compositions and methods for reducing activation of alpha-1 receptors” (Eye Therapies LLC, priority 2008, dated 2013).

What was measured:
[1] = brimonidine 0.01-[…] left eye vs tetrahydrozoline 0.05%, oxymetazoline […], naphazoline […] right eye; baseline redness 4/4
Excerpt: FIG. 4A is a baseline visual appearance of two eyes of a patient with an ocular condition.
In an average clinical situation, baseline redness is at 1-1.5/4.

[2] = Example 5: chronic red eyes, patient satisfaction assessment, eld brimonidine vs Naphcon-A; type: in vivo, human; conditions: brimonidine at […], drops twice a day for three to five weeks, seven patients, all patients
Method: The treatment was through drops twice a day for three to five weeks. At the end, patient satisfaction assessment was conducted.

[3] = FIGS. 5A-C: induction and reversal of rebound hyperemia in a patient's eyes; type: in vivo, human; conditions: brimonidine at […], right eye, after VISINE Original
Excerpt: FIG. 5A is a baseline visual appearance of two eyes of a patient with an ocular condition.

[4] = 0.03% brimonidine nasal spray, 0.9% saline vehicle, n of 1
[5] = Example 2: Lasik prophylaxis, postoperative hyperemia, hemorrhage and flap dislocation; conditions: brimonidine 0.02%

## Brc1c(N=C2NCCN2)ccc2nccnc12.O=C(O)C(O)C(O)C(=O)O [brimonidine, 5-bromo-6-(2-imidazolidinylideneamino)quinoxaline L-tartrate]
[1]
  scleral whitening brightening effects: significant scleral whitening brightening effects
[2]
  patient-reported redness: reduced redness
[3]
  effect on VISINE Original induced rebound hyperemia: reversing the VISINE Original® induced rebound hyperemia
[4]
  duration of complete relief of moderate nasal congestion per application: 3 to 5 h
[5]; from day 1 after Lasik
  cosmetic appearance vs. no vasoconstrictor and vs. Naphcon-A: much improved
[5]; over 500 eyes
  hyperemia in the majority of the 1+ or less hyperemic group: no or only trace hyperemia
